{"source": "patent US20040087629A1", "about": "“Tartrate salts of thiazolidinedione derivative” (priority 2003, published 2004)", "conditions": "1 month, product of Example 4", "note": "Where two headings read alike, the source gives them in different places."}
{"compound": "CN(CCOc1ccc(CC2SC(=O)NC2=O)cc1)c1ccccn1.O=C(O)C(O)C(O)C(=O)O", "note": "[L(+) Tartrate, 5-[4-[2-(N-methyl-N-(2-pyridyl)amino)ethoxy]benzyl]thiazolidine-2,4-dione L-(+)-tartrate]", "values": [{"measurement": "HPLC assay (final content)", "setting": "40° C./75% Relative Humidity (RH), open exposure", "result": 97, "unit": "% initial"}, {"measurement": "HPLC assay (final content)", "setting": "50° C., closed", "result": 98, "unit": "% initial"}]}
